“Also recorded” adds a separate entry of the source. Ends that are not written are not given here. C(Compound (Ia)-maleimide) = not defined here
How the values were obtained:
[1] = tested on: MGAR cells; experiment: Cellular assay: MBP peptide loading on MGAR cells, FACS labeling with MK16 mAb; type: cell-based, human; conditions: for activity relative to Compound (Ia) in loading of MBP peptide to DR2: MGAR cells, MBP peptide 1 μM, FIG. 13B, 14B
Procedure: The cells were then labeled with biotinylated MK16 Fab and streptavidin-APC and analyzed by FACS. Cells not pulsed with peptide (green line) were used as a negative control to define background labeling of MK16.
(§1) MGAR cells were incubated with MBP peptide (1 μM) in the presence of different compounds and the amount of DR2 bound peptide was determined by FACS labeling with the MK16 mAb.
as §1, §1

[2] = target: T1, DR2 (Homo sapiens, UniProt P01903+P01911); experiment: Real-time fluorescence polarization peptide binding assay (DR2/CLIP plus Alexa-488 labeled MBP peptide)
[3] = target: T2, empty DR2 molecules (Homo sapiens, UniProt P01903+P01911); experiment: Association of Alexa-488 MBP peptide to empty DR2 molecules after photo-cleavage of bound peptide (FP); type: biochemical; conditions: photo-cleaved bound peptide, with versus without compound
T2 construct: we generated DR/CLIP complexes as soluble molecules in CHO cells; CLIP peptide (of invariant chain, CD74) joined through a linker with a thrombin cleavage site (N, cleaved yes); made in house
Description: DM acts as a catalyst that accelerates peptide binding reactions and increases both the rate of peptide dissociation and association. […] Rigorous testing of this hypothesis required generation of empty DR molecules, a task that is challenging because DR molecules aggregate over time in the absence of peptide. Applicants therefore synthesized a peptide with a photo-cleavable residue (a derivative of phenylalanine), so that the binding site could be rapidly vacated by peptide cleavage. This approach has been reported for the creation of empty MHC class I molecules (Toebes et al., 2006, Nat. Med., 12:246-251). The photoreactive group [3-amino-3-(2-nitro) phenyl-propionic acid; […]] was placed at the P4 position of the peptide, close to the center of DR2 bound peptide. The peptide also carried an N-terminal DNP group for affinity isolation of the complex generated with this peptide. […] Applicants then loaded this peptide onto DR2 molecules, isolated the complex by DNP affinity chromatography, irradiated the samples at 360 nm at 4° C., added Alexa™-488 labeled MBP and tracked its association to DR2 by FP in the presence and absence of Compound (Ia). Applicants observed a striking Compound (Ia)-induced acceleration of Alexa™-488 MBP association to DR2 when the bound peptide was photo-cleaved compared to reactions with photo-cleavage but no Compound (Ia) as diagrammed in FIG. 5. […]

[4] = mouse, in vivo
Description: An important aspect of the medicinal chemistry effort is a thorough analysis of potential in vivo toxicity.

[5] = tested on: dendritic cells; experiment: Peptide presentation by dendritic cells in vivo (MK16 labeling of draining lymph node cells); conditions: co-administered at 50-200 μM s.c. with MBP peptide
Description: Applicants next established the higher levels of peptide presentation in the presence of Compound (Ia) in human antigen presenting cells (APCs). The goal of these experiments is to examine whether Compound (Ia) covalently linked to the MBP peptide (abbreviated as Compound (Ia)*MBP peptide) and Compound (Ia) co-administered with peptide (Compound (Ia)+MBP peptide) enhance binding to MHC-II in vivo compared to unmodified peptide. The MK16 mAb (Krogsgaard et al., 2000, J. Exp. Med., 191:1395-1412) is used to directly quantify DR2/MBP peptide complexes on the surface of dendritic cells in lymph nodes draining the s.c. injection site. Lymph nodes are dissected 24 hours following injection of peptides in PBS and cell suspensions are labeled with CD11c (dendritic cells), MK16 (DR2/MBP), and Annexin-V (exclusion of apoptotic cells) for FACS analysis. The efficacy of Compound (Ia)*MBP peptide and unmodified MBP peptide are compared at concentrations ranging from 1 to 100 μM administered s.c. in the flank in 0.2 ml of PBS. In the co-administration mode, Compound (Ia) is added to the inoculum at concentrations of 50-200 μM.

[6] = tested on: CD4 T cell response; experiment: Immunization of HLA-DR4 transgenic mice with viral and tumor peptides, CD4 T cell response; type: in vivo; conditions: co-administered with or covalently linked to peptide
Description: HLA-DR4 transgenic mice (DRA, DRB1*0401) are used to examine whether Compound (Ib), Compound (Ia) and the other compounds enhance the CD4 T cell response following immunization with viral and tumor peptides. Mice are immunized with peptides from two human pathogens (HIV and HCV) as well as peptides from two human tumor antigens (annexin V and gp100, identified in human melanomas). Applicants have previously performed binding studies with these peptides and shown that they bind with high affinity to DR4. The T cell response is analyzed in two different assays. First, the frequency of peptide-specific T cells is analyzed in draining lymph nodes with DR4/peptide tetramers. This approach provides a quantitative readout of the induced T cell response. Second, the cytokine production profile of these T cells is determined following a 48 hour in vitro re-stimulation with the relevant peptide. The cytometric bead array technique is utilized for comprehensive definition of the cytokine repertoire. Either Compound (Ia) is co-administered with the peptide of interest in the adjuvant or peptides are utilized with a covalently linked Compound (Ia) group (or other groups, depending on which one is being tested). […] These experiments are expected to establish the in vivo efficacy of Compound (Ia) and to establish appropriate dosing and administration procedures with rapid, quantitative readouts. […]

[7] = target: T1, DR2; experiment: Dissociation of pre-bound Alexa-488 labeled MBP peptide from DR2 followed by fluorescence polarization; type: biochemical; design: we generated DR/CLIP complexes as soluble molecules in CHO cells; CLIP peptide (of invariant chain, CD74) joined through a linker with a thrombin cleavage site (N, cleaved yes); made in house; conditions: for displacement (dissociation) of labeled MBP peptide from DR2 by competitor: competitor 50 μM, 150 nM DR2/50 nM Alexa-488 MBP
Procedure: We also examined whether Compound (Ia) could induce the release of a previously bound high affinity peptide from DR2 as shown in FIG. 4B. This issue is important for potential applications of this small molecule because most DR molecules are occupied by intermediate to high affinity peptides. Applicants therefore loaded the DR2 molecule with the high affinity Alexa™-488 MBP peptide during an overnight incubation and then examined if Compound (Ia) could induce dissociation of this labeled peptide. A molar excess of an unlabeled MBP peptide was added to inhibit rebinding of the labeled peptide to DR2. […] Compound (Ia) thus substantially accelerates peptide binding by creating empty DR molecules.
We then tested the concept of “self-catalyzed peptide loading” by synthesizing the MBP peptide with an N-terminal or C-terminal cysteine to which the Compound (Ia)-maleimide was linked. These peptide-Compound (Ia) compounds were purified by reverse-phase HPLC and their identity verified by mass spectrometry. Applicants then examined whether the linked Compound (Ia) group could displace a high affinity peptide from the DR2 binding site. For that purpose, we loaded DR2 (1.5 μM) with the Alexa™-488 labeled MBP peptide (500 nM) at 37° C. for 5 hours. The complex was then diluted to 150 nM DR2/50 nM Alexa™-488 and added to a 384-well plate in a volume of 40 μl.

[8] = target: T3, DR2/CLIP (Homo sapiens, UniProt P01903+P01911); experiment: Competition for binding of labeled MBP peptide to DR2/CLIP in the FP assay; conditions: 10 nM MBP-488, 100 nM DR2/CLIP, wide dose range
T3 construct: we generated DR/CLIP complexes as soluble molecules in CHO cells; CLIP peptide (of invariant chain, CD74) joined through a linker with a thrombin cleavage site (N, cleaved yes); made in house
Procedure: Competitor peptides were tested over a wide dose range against 10 nM MBP-488 and 100 nM DR2/CLIP in the FP assay.
Compound (Ia)-glatiramer acetate compounds are characterized for their ability to compete for binding of the Alexe™-488 labeled MBP peptide to DR2 in the FP assay, as well as for their ability to inhibit presentation of the MBP peptide to human MBP specific T cell clones, as described in detail above.

[9] = tested on: DR2/MBP specific T cell hybridoma; experiment: T cell assay: IL-2 release by DR2/MBP specific T cell hybridoma, MBP (85-99) presented by MGAR cells; type: cell-based; conditions: MGAR cells as APC
Procedure: Peptide presentation of MBP (85-99) to T cell hybridomas by MGAR cells was measured by IL-2 release.

[10] = DR2/TCR transgenic mice and other EAE models, from a mean score of ~4; cited from earlier work
[11] = 20 mg daily subcutaneously over two years; cited from earlier work

With `O=C(Cc1c(C(=O)O)[nH]c2c(F)c(F)c(F)cc12)Nc1ccc(Cl)c(Cl)c1` [Compound (Ib)] the “activity relative to Compound (Ia) in loading of MBP peptide to DR2” value (from here on “activity relative to Compound (Ia)”) [1] was “substantially higher activity than Compound (Ia)” and the “fold higher activity than Compound (Ia) in catalyzing loading of the MBP peptide to DR2” value ([2]; biochemical assay) was 4.2 fold.

For `O=C(Cc1c(C(=O)O)[nH]c2ccc(Cl)cc12)Nc1ccc(F)c(Cl)c1` [Compound (Ia)], the “peptide association to empty DR2 molecules” value [3] was “substantially accelerated peptide association to empty DR2 molecules”, the “lowering of the dose of peptide required for equivalent staining / presentation” value ([1]; 1 μM MBP peptide plus compound versus 10 μM peptide alone) was “approximately 10 fold” and the “presentation of MBP on MGAR cells (MK16 staining)” value ([1]; 100 μM compound, 1.7 μM MBP peptide, 30 minutes at 37° C.) was “significantly increased”. For the same compound, the “acute toxicity, observation of mice” value [4] was “no sips of distress”, the “loading of peptides on dendritic cells in vivo” value [5] was “increases loading of peptides in a dose-dependent manner” and the “CD4 T cell response following immunization” value [6] was “substantial enhancement”. The “fold increase of the initial rate of peptide association” value ([2]; neutral pH) was 22 fold, the “time to reach half-maximal peptide association” value ([2]; pH 5.2, absence of DM, compound at 109 μM (160 minutes without compound)) was 7 min and the “rate of peptide binding reaction compared to DM” value ([2]; pH 5.2, higher compound concentrations) was “faster than in the presence of DM”. The “pH of maximum activity” value ([2]; pH range 3.75-7.0) was 5.25, the “fold increase of the initial rate of peptide association” value ([2]; pH range from pH 4.5 to 5.75) was “more than 58 fold” and the “dissociation of previously bound high affinity labeled MBP peptide from DR2” value ([7]; excess unlabeled MBP peptide, versus DMSO control) was “marked acceleration of peptide dissociation”. The “concentration range inducing peptide dissociation” value ([7]; release of high affinity peptides from DR2) was “low micro-molar range”.

With “MBP-C-Compound (Ia): MBP peptide with a C-terminal cysteine to which the Compound (Ia)-maleimide was linked (PGSRPHLIRLFSRDA-{C(Compound (Ia)-maleimide)}; reading uncertain; UniProt P02686 85-99, looked up, fragment)” the “competition against labeled MBP peptide for DR2/CLIP” value [8] was “more effective competitor than unmodified MBP peptide”, the “IL-2 production by T cell hybridoma” value [9] was “higher levels of IL-2 production” and the “displacement (dissociation) of labeled MBP peptide from DR2 by competitor” value ([7]; listed as MBP peptide with C-terminally linked Compound (Ia)) was “more effective in displacing the labeled peptide; also recorded: more favorable”.

For “MBP peptide without linked Compound (Ia): unmodified myelin basic protein (85-99) peptide that binds with high affinity to DR2 (PGSRPHLIRLFSRDA; UniProt P02686 85-99, looked up, fragment) [reference compound]”, the “displacement (dissociation) of labeled MBP peptide from DR2 by competitor” value [7] was “slow dissociation”.

With `O=C(Cc1c(C(=O)O)[nH]c2ccccc12)Nc1ccc(Cl)c(Cl)c1` [Compound (Ic)] the “activity relative to Compound (Ia)” value [1] was “higher activities than Compound (Ia)”.

In the case of glatiramer acetate, the “mean EAE score under treatment” value [10] is listed as ~2 and the “reduction of relapse rate” value [11] is listed as 29%.

In the case of `O=C(Cc1c(C(=O)O)[nH]c2c(F)c(F)c(F)cc12)Nc1ccc(F)c(Cl)c1` [Compound (Id)], the “activity relative to Compound (Ia)” value [1] is reported as “higher activities than Compound (Ia)”.
